Test results reported in patent US4882349A, “Pyrrolacetic amides having antiinflammatory activity” (priority 1982, dated 1989).

Key:
[1] = test system: carrageenin-induced oedema; experiment: carrageenin-induced oedema test (anti-inflammatory activity); assay type: in vivo, albino male Wistar rats
Procedure: This effect was evaluated by means of an experimental model reproducing acute inflammation: for this purpose the carrageenin- induced oedema test was employed following the method described by C.
Albino male Wistar rats weighing 140-160 g were caged for 10 days at 22±1° C. and given a balanced diet and water ad libitum. Eighteen hours before the experiment the animals were randomized into groups of ten and fasted but with free access to water. Each dose was tested in three groups of rats. Each compound was given either orally, by gavage, or parenterally--intraperitoneal injection--administering as follows:
controls: 0.5% carboxymethylcellulose suspension in physiological saline, 10 ml/kg
treated: suspension of the compounds to be tested in the same vehicle and at the same volume (10 ml/kg) used for the controls at the doses specified below.
One hour after administration of the compounds and vehicle, in order to provoke the oedema for determining the protective effect of the substances under examination, each rat received, by subcutaneous injection into the plantar surface of the left paw, 0.1 ml of 1% sterile carrageenin suspension.

[2] = test system: phenyl-p-quinone-induced writhing (abdominal contractions); experiment: phenylquinone-induced writhing test (analgesic activity), compound given 30 min before phenyl-p-quinone; assay type: in vivo, male Wistar rats
Procedure: Male Wistar rats weighing 110±5 g were caged for 10 days at 22±1° C. and given a balanced diet with free access to water. Twenty-four hours before the experiment the animals were randomized into groups of 10 and fasted for 14 hours but with free access to water. Each dose was tested in 3 groups of rats. Thirty minutes following administration either orally or parenterally of the products to be tested and the vehicle alone (0.5% carboxymethyl-cellulose in physiological saline) in the control animals, each rat was given 2 ml of a 5% absolute ethanol aqueous solution containing 0.36% of phenyl-p-quinone (Sigma Chemical Company) in order to provoke writhings. Fifteen minutes after administration of phenyl-p-quinone the number of contractions were counted for 20 minutes. The inhibiting effect of the compounds under examination on the abdominal contractions induced by phenyl-p-quinone was calculated by the following formula: % protection= [formula]
Table V lists the tested compounds, doses, routes of administration and their efficacy expressed as percentage of protection, taking into account that phenyl-p-quinone was administered thirty minutes after the compounds.

[3] = test system: mucus secreted by the respiratory airway; experiment: antisecretory activity, respiratory mucus secretion; assay type: in vivo, albino male New Zealand rabbits; conditions: vs control group
Procedure: The experiment was carried out in accordance with the method described by Y. Kase (Folia Pharmacol. Jap. 73: 605, 1977) for the purpose of investigating whether or not the compounds under examination determine changes in the volume of the mucus secreted by the respiratory airway. Groups of four albino male New Zealand rabbits (mean weight: 2.5 kg) were used for testing each dose per single group. The animals were anesthetized with urethane (1.1 g/ks b.w.) via the intraperitoneal route and a Y cannula was inserted into the trachea. In order to stimulate mucous secretion a humidifier was connected to the cannula permitting the animals to spontaneously breathe air with 100% humidity at a constant temperature of 39° C. The secreted mucus was collected through another opening in the cannula and measured at three and six hours after administration of the compounds under examination or of the vehicle alone administered in the order of […] (controls). Calculation of the increase or decrease in mucous secretion was based upon the percentage differences between the groups treated with the compounds under examination and the control group. Table VII gives the percentage differences in mucous secretion, and the tested compounds with relative doses and routes of administration.

[4] = test system: cough provoked by mechanical stimulation of the tracheal bifurcation mucosa; experiment: antitussive activity, mechanically provoked coughing; assay type: in vivo, albino Guinea-pigs; conditions: 1 h after administration
Procedure: The antitussive effect on albino Guinea-pigs weighing 300 g was evaluated using the method described by Y. Kase (Selected Pharmacological Testing Methods, p.363, Marcel Dekker Inc., New York, 1968). Each dose was tested in a group of animals with a Y cannula inserted into the trachea. In order to provoke coughing, the mucosa of the tracheal bifurcation was mechanically stimulated by insertion of a wild boar's hair through an opening in the cannula, while the other opening was connected to a kymograph to plot the amplitude and/or frequency. The reduction in the number of coughs was evaluated at one hour after administration of the compounds under examination by following the plottings for twenty minutes and comparing the response of the control animals.

in vivo [5] = conditions: mouse
in vivo [6] = conditions: rat

SMILES: Cc1ccc(C(=O)c2ccc(CC(=O)NCC(=O)O)n2C)cc1 [Compound 1-c, 1-methyl-5-p-toluoylpyrrole-2-acetamidoacetic acid]
- oedema % inhibition ([1]; 25 mg/Kg per os, 2 h): 38,6%
- oedema % inhibition ([1]; 25 mg/Kg per os, 4 h): 39,1%
- oedema % inhibition ([1]; 25 mg/Kg per os, 6 h): 37.2%
- oedema % inhibition ([1]; 25 mg/Kg per os, 24 h): 12.1%
- oedema % inhibition ([1]; 25 mg/Kg per os, 48 h): 0.0%
- oedema % inhibition ([1]; 25 mg/Kg per os, 72 h): 0.0%
- oedema % inhibition ([1]; 25 mg/Kg, Table IV (route not given), 2 h): 40.0%
- oedema % inhibition ([1]; 25 mg/Kg, Table IV (route not given), 4 h): 44.8%
- oedema % inhibition ([1]; 25 mg/Kg, Table IV (route not given), 6 h): 45.0%
- oedema % inhibition ([1]; 25 mg/Kg, Table IV (route not given), 24 h): 9.0%
- oedema % inhibition ([1]; 25 mg/Kg, Table IV (route not given), 48 h): 0.0%
- oedema % inhibition ([1]; 25 mg/Kg, Table IV (route not given), 72 h): 0.0%
- oedema % inhibition ([1]; 50 mg/Kg per os, 2 h): 51.8%
- oedema % inhibition ([1]; 50 mg/Kg per os, 4 h): 58.9%
- oedema % inhibition ([1]; 50 mg/Kg per os, 6 h): 60.4%
- oedema % inhibition ([1]; 50 mg/Kg per os, 24 h): 18.7%
- oedema % inhibition ([1]; 50 mg/Kg per os, 48 h): 0.0%
- oedema % inhibition ([1]; 50 mg/Kg per os, 72 h): 0.0%
- oedema % inhibition ([1]; 50 mg/Kg, Table IV (route not given), 2 h): 55.0%
- oedema % inhibition ([1]; 50 mg/Kg, Table IV (route not given), 4 h): 64.0%
- oedema % inhibition ([1]; 50 mg/Kg, Table IV (route not given), 6 h): 65.4%
- oedema % inhibition ([1]; 50 mg/Kg, Table IV (route not given), 24 h): 20.0%
- oedema % inhibition ([1]; 50 mg/Kg, Table IV (route not given), 48 h): 8.0%
- oedema % inhibition ([1]; 50 mg/Kg, Table IV (route not given), 72 h): 0.0%
- oedema % inhibition ([1]; 100 mg/Kg per os, 2 h): 69.0%
- oedema % inhibition ([1]; 100 mg/Kg per os, 4 h): 70.1%
- oedema % inhibition ([1]; 100 mg/Kg per os, 6 h): 67.0%
- oedema % inhibition ([1]; 100 mg/Kg per os, 24 h): 26.0%
- oedema % inhibition ([1]; 100 mg/Kg per os, 48 h): 10.0%
- oedema % inhibition ([1]; 100 mg/Kg per os, 72 h): 0.0%
- oedema % inhibition ([1]; 100 mg/Kg, Table IV (route not given), 2 h): 74.8%
- oedema % inhibition ([1]; 100 mg/Kg, Table IV (route not given), 4 h): 77.5%
- oedema % inhibition ([1]; 100 mg/Kg, Table IV (route not given), 6 h): 74.0%
- oedema % inhibition ([1]; 100 mg/Kg, Table IV (route not given), 24 h): 30.4%
- oedema % inhibition ([1]; 100 mg/Kg, Table IV (route not given), 48 h): 12.0%
- oedema % inhibition ([1]; 100 mg/Kg, Table IV (route not given), 72 h): 0.0%
- % Protection ([2]; 5 mg/Kg i.p.): 27.1%
- % Protection ([2]; 5 mg/Kg per os): 25.3%
- % Protection ([2]; 10 mg/Kg i.p.): 46.3%
- % Protection ([2]; 10 mg/Kg per os): 49.0%
- % Protection ([2]; 20 mg/Kg i.p.): 82.0%
- % Protection ([2]; 20 mg/Kg per os): 85.1%
- % difference in mucus secretion ([3]; 50 mg/Kg i.p., 3 h): 0.0%
- % difference in mucus secretion ([3]; 50 mg/Kg i.p., 6 h): 0.0%
- % difference in mucus secretion ([3]; 50 mg/Kg per os, 3 h): 0.0%
- % difference in mucus secretion ([3]; 50 mg/Kg per os, 6 h): +6%
- % difference in mucus secretion ([3]; 75 mg/Kg i.p., 3 h): -12%
- % difference in mucus secretion ([3]; 75 mg/Kg i.p., 6 h): -7%
- % difference in mucus secretion ([3]; 75 mg/Kg per os, 3 h): -10%
- % difference in mucus secretion ([3]; 75 mg/Kg per os, 6 h): -8%
- % difference in mucus secretion ([3]; 100 mg/Kg i.p., 3 h): -37%
- % difference in mucus secretion ([3]; 100 mg/Kg i.p., 6 h): -25%
- % difference in mucus secretion ([3]; 100 mg/Kg per os, 3 h): -35%
- % difference in mucus secretion ([3]; 100 mg/Kg per os, 6 h): -22%
- % inhibition, cough amplitude ([4]; 50 mg/Kg i.p.): 10%
- % inhibition, cough frequency ([4]; 50 mg/Kg i.p.): 25%
- % inhibition, cough amplitude ([4]; 50 mg/Kg per os): 12%
- % inhibition, cough frequency ([4]; 50 mg/Kg per os): 20%
- % inhibition, cough amplitude ([4]; 75 mg/Kg i.p.): 15%
- % inhibition, cough frequency ([4]; 75 mg/Kg i.p.): 27%
- % inhibition, cough amplitude ([4]; 75 mg/Kg per os): 20%
- % inhibition, cough frequency ([4]; 75 mg/Kg per os): 22%
- % inhibition, cough amplitude ([4]; 100 mg/Kg i.p.): 40%
- % inhibition, cough frequency ([4]; 100 mg/Kg i.p.): 51%
- % inhibition, cough amplitude ([4]; 100 mg/Kg per os): 38%
- % inhibition, cough frequency ([4]; 100 mg/Kg per os): 45%
- LD50 (in vivo [5]; ip): 700 mg/kg
- LD50 (in vivo [5]; po): 1000 mg/kg
- LD50 (in vivo [6]; ip): 780 mg/kg
- LD50 (in vivo [6]; po): 1300 mg/kg
